“Also recorded” adds a separate entry of the source. Read-outs that look alike come from different tables or passages of the source.

The conditions of data set [1]: cited from earlier work.
The conditions of data set [2]: compared with 1,25-(OH)2 D3; cited from earlier work.
Another data set has as its system Ovariectomized rats. Description: Ovariectomized rat model: serum Ca and P, femur dry weight, ash weight and breaking load. In kind it is in vivo, Female Fisher rats. As to conditions: for Serum Pi / Breaking load (femur) / Serum Ca / Ash weight (femur) / Dry weight (femur): three times a week for 23 weeks, Mean ± SD; for Serum Pi: OVX 2.6 ± 0.4; for Breaking load (femur): OVX 9.0 ± 0.9; for Serum Ca: OVX 9.7 ± 0.2; for Ash weight (femur): OVX 285 ± 19; for Dry weight (femur): OVX 431 ± 26. An excerpt:
Female Fisher rats, 9-10 months old, were ovariectomized and were fed a vitamin D-deficient diet containing 0.45% calcium and 0.3% phosphorus. The rats were given 15IU of vitamin D3 orally once a week throughout this experiment. Four weeks after the surgery, the rats were orally adminstered three times a week for 23 weeks with ST-630 (30, 100 or 300 pmole/kg) or 1α-hydroxyvitamin D3 (100 or 300 pmole/kg).

Data set [3] can be described thus: Acute toxicity (LD50), single dose. The class given is in vivo, rat. As to conditions: rat, in vivo; single (acute) dose, male rats, at 14 days. An excerpt:
LD50 data represent the dose administered resulting in the death of 50% of the test group.

A further data set has as its system female beagle dogs. Description: Chronic dosing toxicity, three months oral. The class given is in vivo, dog (beagle). Particulars: 0.3 mg/kg orally each day for three months. As for the experimental part:
With respect to chronic dosing, a group of six female beagle dogs were given 0.3 mg/kg of either ST-630 or 1α-hydroxyvitamin D3 orally each day for three months.

The conditions of data set [4]: cited from earlier work. This is another data set of the same source.
The subject of data set [5] is postmenopausal osteoporosis. Particulars: average dose 0.8 μg per day, cited from earlier work.
Data set [6] relates to postmenopausal osteoporosis. As to conditions: cited from earlier work.
For data set [7] the following is noted: in vivo; cited from earlier work.
Setting [8] is: especially with conventional calcium supplement treatment.
The mark [9] stands for this setting: dose response over the doses tested.

As for `C=C1/C(=C\C=C2/CCC[C@]3(C)[C@@H]([C@H](C)/C=C/[C@H](C)C(C)C)CC[C@@H]23)C[C@@H](O)C[C@@H]1O` [1α-hydroxyvitamin D2], in data set [1] (setting [8]), the hypercalcemia result is on record as “causing hypercalcemia”.
Consider `C=C1/C(=C\C=C2/CCC[C@]3(C)[C@@H]([C@H](C)CCC(F)(F)C(C)(C)O)CC[C@@H]23)C[C@@H](O)C[C@@H]1O` [24,24-difluoro-1,25-(OH)2 D3], for which the “activity relative to 1,25-(OH)2 D3” value in data set [2] is “at least as great if not greater activity”.
As for `C=C1/C(=C\C=C2/CCC[C@]3(C)[C@@H]([C@H](C)CCCC(C)C)CC[C@@H]23)C[C@@H](O)C[C@@H]1O` [1α-hydroxyvitamin D3, reference compound], in the data set on Ovariectomized rats (100 pmole/kg p.o.), the “Serum Pi” value came out at 3.8 ± 0.3 mg/100 ml, the “Breaking load (femur)” value came to 9.3 ± 0.6 kg, the “Serum Ca” value was found to be 9.9 ± 0.2 mg/100 ml and the “Ash weight (femur)” value amounted to 303 ± 29 mg. The “Dry weight (femur)” value with Ovariectomized rats (100 pmole/kg p.o.) was determined as 454 ± 42 mg. Also, in the data set on Ovariectomized rats (300 pmole/kg p.o.), the “Serum Pi” value is 4.3 ± 0.4 mg/100 ml, the “Breaking load (femur)” value stood at 9.5 ± 1.1 kg, the “Serum Ca” value was 10.3 ± 0.3 mg/100 ml and the “Ash weight (femur)” value turned out to be 308 ± 33 mg. The “Dry weight (femur)” value with Ovariectomized rats (300 pmole/kg p.o.) was 461 ± 47 mg. Moreover, in the data set on Ovariectomized rats (setting [9]), the serum calcium level entry is given as “increased dose-dependently” and the serum phosphorus level entry is reported as “increased dose-dependently”. This molecule showed an LD50 at 336 h in [3] of 0.2 mg/kg. In addition, the deaths entry with female beagle dogs was “two of six dogs”. In addition, in data set [4] (humans), the “safe dose used for human administration” value was 1 µg/day.
For the molecule `C=C1CC[C@H](O)C/C1=C/C=C1\CCC[C@]2(C)[C@@H]([C@H](C)CCCC(C)(C)O)CC[C@@H]12` [hydrate of 25-hydroxyvitamin D3, 25-hydroxyvitamin D3], in data set [1] (setting [8]), the hypercalcemia entry was “danger of hypercalcemia”.
Take `C=C1/C(=C\C=C2/CCC[C@]3(C)[C@@H]([C@H](C)/C=C/[C@H](C)C(C)(C)O)CC[C@@H]23)C[C@@H](O)C[C@@H]1O` [1α,25-dihydroxyvitamin D2]: in data set [1] (setting [8]), the hypercalcemia entry is listed as “causing hypercalcemia”.
For `C=C1/C(=C\C=C2/CCC[C@]3(C)[C@@H]([C@H](C)CCCC(C)(C)O)CC[C@@H]23)C[C@@H](O)C[C@@H]1O` [calcitriol, 1α,25-dihydroxyvitamin D3], in data set [5], the Hypercalciuria incidence entry was “all subjects”, the bone formation result was “no effect on bone formation”, the bone resorption result is “reducing bone resorption” and the calcium absorption result is recorded as “increasing calcium absorption”. Moreover, in data set [5], the hypercalcemia incidence is 11 of 12 subjects. Besides, the bone loss result in [5] (women with postmenopausal osteoporosis) is recorded as “reduced bone loss”. Further, the hypercalcemia entry in data set [6] (0.5 μg per day (0.25 μg orally twice a day), average dietary calcium intake 800 mg) is on record as “not accompanied by hypercalcemia of any severity; also recorded: limited potential to induce hypercalcemia”. The “rate of new vertebral fractures” value in data set [6] (0.5 μg per day for three years, versus supplemental calcium 1 gram daily) is listed as “significant reduction”. Moreover, the hypercalcemia result in data set [1] (setting [8]) is reported as “causing hypercalcemia”. In data set [4] (in view of Oloia et al and Tilyard et al), the “dosage "window" or tolerance between effectiveness and toxicity” value is recorded as “relatively small”.
`C=C1/C(=C\C=C2/CCC[C@]3(C)[C@@H]([C@H](C)/C=C/[C@@H](C)C(C)(C)O)CC[C@@H]23)C[C@@H](O)C[C@@H]1O` [1α,25-dihydroxy-24-epi-vitamin D2]: in [7], the intestinal calcium transport result was “increasing intestinal calcium transport”, the “mineralization of new bone” value is reported as “stimulating the mineralization of new bone” and the “mobilizing calcium from bone” value is on record as “minimal effectiveness”.
On to `C=C1/C(=C\C=C2/CCC[C@]3(C)[C@@H]([C@H](C)CCC(O)C(C)(C)O)CC[C@@H]23)C[C@@H](O)CC1O` (stereo partly drawn) [1,24,25-trihydroxyvitamin D3], for which the hypercalcemia entry in data set [1] (in vivo) is reported as “causing hypercalcemia”.
